The term IC50 denotes the concentration at which inhibition is half-maximal.

Active and inactive are the calls of the source. No rule for the calls is given here.

IC50 data for 91 compounds are collected here from PubChem BioAssay AID1259371 (The Scripps Research Institute Molecular Screening Center, 2018).

For the test, the target named is Microphthalmia-associated transcription factor (Homo sapiens) (UniProt O75030). Description: MITF inhibitors, potency by titration, dose response, biochemical, AlphaScreen, human (AID 1259371). To be noted: AlphaScreen biochemical MITF assay, signal inhibition. On the technique in general: In Alpha technology, singlet oxygen from a donor bead excites a nearby acceptor bead.
Chain of Microphthalmia-associated transcription factor (Homo sapiens) (O75030 whole entry, looked up): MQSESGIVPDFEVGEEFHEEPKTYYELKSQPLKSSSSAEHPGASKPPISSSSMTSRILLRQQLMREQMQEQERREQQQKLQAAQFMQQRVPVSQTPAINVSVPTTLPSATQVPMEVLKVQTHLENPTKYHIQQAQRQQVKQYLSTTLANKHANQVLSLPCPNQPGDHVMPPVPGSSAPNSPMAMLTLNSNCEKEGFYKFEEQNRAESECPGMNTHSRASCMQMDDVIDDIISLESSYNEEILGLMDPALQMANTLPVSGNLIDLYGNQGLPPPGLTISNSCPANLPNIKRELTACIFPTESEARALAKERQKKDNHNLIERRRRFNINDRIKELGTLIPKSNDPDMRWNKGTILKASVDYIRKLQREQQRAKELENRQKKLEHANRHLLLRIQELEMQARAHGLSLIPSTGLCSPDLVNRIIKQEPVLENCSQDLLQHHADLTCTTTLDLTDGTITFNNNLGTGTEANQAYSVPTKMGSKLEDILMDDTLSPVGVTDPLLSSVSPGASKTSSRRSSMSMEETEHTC
For the compound `CC(C)[C@H]1NC(=O)[C@H]2CN(C(=O)NCc3ccccc3)CCN2C1=O`, the IC50 result is “inactive”.

As to `C=CC1=C(C)C2=Cc3c(C=C)c(C)c4[n]3[Sn+2][n]3c(c(C)c(CCC(=O)O)c3=CC3=NC(=C4)C(C)=C3CCC(=O)O)=CC1=N2`, the IC50 entry is “inactive”.

For the compound `CC(C)C[C@@H]1NC(=O)[C@H]2CN(C(=O)NC3CCCCC3)CCN2C1=O`, the IC50 is 985 nM.

For `O=C(NC1CCCCC1)N1CCN2C(=O)[C@H]3CCCN3C(=O)[C@H]2C1`, the half-inhibitory concentration (IC50) was 467 nM.

For `CCOc1ncccc1C(=O)OCC(=O)Nc1oc(-c2ccco2)c(-c2ccco2)c1C#N`, the IC50 is 557 nM.

For the compound `Cc1cccc(C(=O)Nc2c3c(nn2-c2ccc(F)cc2)CSC3)c1`, the IC50 is > 5530 nM (inactive).

`O=C1CCCC2=C1C(c1ccc([N+](=O)[O-])o1)C1=C(CCCC1=O)O2`: the IC50 entry was “inactive”.

For the compound `COc1cc2cc3c(N)c(C(=O)Nc4sc(C)c(C)c4C#N)sc3nc2cc1OC`, the IC50 was 409 nM.

In the case of `COc1ccc2c3c(cccc13)C(=O)N(C)C2=O`, the IC50 entry was “inactive”.

Take `O=C(OC1CCCC1=O)c1ccc(N2CCCC2=O)cc1` (stereo unspecified): the IC50 entry was “inactive”.

`C/C=C\C1=C(C(=O)O)N2C(=O)C(NC(=O)C(N)c3ccc(O)cc3)C2SC1` (stereo unspecified): the IC50 was > 6480 nM (inactive).

As for `Nc1cc(Br)cnc1N`, the IC50 is 61.9 nM.

For the compound `COc1cc(C=Nc2ccc(N(C)C)cc2)cc(I)c1O`, the IC50 is > 6480 nM (inactive).

On to `OCCNc1cc(-c2cccs2)ncn1`, for which the IC50 entry is “inactive”.

Regarding `C=CCc1cc(C)ccc1OCCCCn1ccnc1`, the IC50 was > 6480 nM (inactive).

Take `O=C1N[C@@H](Cc2c[nH]c3ccccc23)C(=O)N2CCN(C(=O)NC3CCCCC3)C[C@H]12`: the IC50 result is “inactive”.

`O=C1N[C@H](Cc2ccc(O)cc2)C(=O)N2CCN(C(=O)NC3CCCCC3)C[C@H]12`: the IC50 is > 2160 nM (inactive).

On to `O=C(c1ccc2c(c1)C(=O)N(Cc1cccnc1)C2=O)c1ccc2c(c1)C(=O)N(Cc1cccnc1)C2=O`, for which the IC50 result is “inactive”.

As for `c1cc2c(cc1CNc1nc(Nc3ccc(N4CCOCC4)cc3)c3ncn(C4CCCCC4)c3n1)OCO2`, the IC50 result was “inactive”.

Consider `COc1cc(/C=N/N=C2\NC(=O)C(CC(=O)O)S2)ccc1OCc1ccc(C)cc1` (stereo unspecified), for which the IC50 result is “inactive”.

As for `CCC(C)C(=O)NCc1nnc2n1CCN(C/C=C/c1ccco1)CC2` (stereo unspecified), the IC50 was 570 nM.

On to `O=C(O)c1cc(S(=O)(=O)Nc2ccc3cn[nH]c3c2)ccc1O`, for which the IC50 entry is “inactive”.

Consider `O=[N+]([O-])c1c(Br)ccc2c1no[n+]2[O-]`, for which the IC50 entry was “inactive”.

On to `CCN(C(=O)C1COc2ccccc2O1)C12CC3CC(CC(C3)C1)C2` (stereo unspecified), for which the IC50 result is “inactive”.

For `OC[C@H]1OC([S-])[C@H](O)[C@@H](O)[C@@H]1O.[Au+]` (stereo partly specified), the IC50 entry is “inactive”.

On to `COc1ccc(CC2NCCc3cc(OC)c(OC)cc32)cc1OC` (stereo unspecified), for which the IC50 is 40 nM.

Regarding `Cc1cccc(CN2CCN(C3CCC(C)CC3)CC2)c1` (stereo unspecified), the IC50 is > 5540 nM (inactive).

Turning to `O=C1S/C(=C\c2ccco2)C(=O)N1c1ccccc1Cl`, the IC50 is 809 nM.

As to `Cc1occc1C(=O)N/N=C/C=C/c1ccco1`, the IC50 is 11.2 nM.

Take `Cn1cc(-c2nc(Nc3ccc(-n4cnc(N5CCOCC5)n4)cc3)ncc2Br)cn1`: the IC50 result is “inactive”.

For the compound `CCc1ccc(NC(=O)CS(=O)CC(=O)NCCCc2ccccc2)cc1` (stereo unspecified), the IC50 was > 6480 nM (inactive).

For `COc1ccc2c(c1)C1NC(=S)N(c3cccc(C)c3)C(C)(O2)C1C(=O)Nc1ccc(C)cc1C` (stereo unspecified), the IC50 is > 5710 nM (inactive).

As to `CN1CC[C@H](Oc2cc(-c3cn[nH]c3)ccc2NC(=O)OCc2ccccc2)C1`, the IC50 result was “inactive”.

Take `COc1ccc(CN2CCN(Cc3cccc(Cl)c3)CC2)cc1Br`: the IC50 result is “inactive”.

`O=C(N/N=C/C=C/c1ccco1)c1ccncc1`: the IC50 is 24.5 nM.

With `COc1ccc2c(c1)CC(C(=O)Nc1ccc(-c3cn[nH]c3)cc1OCc1ccccc1)CO2` (stereo unspecified), the IC50 entry is “inactive”.

Take `CC[C@H](C)[C@@H]1NC(=O)[C@H]2CN(C(=O)NC3CCCCC3)CCN2C1=O`: the IC50 was > 2160 nM (inactive).

Regarding `COc1cc(CN2CCN(C3CCCC3)CC2)cc(OC)c1OC`, the IC50 was > 6480 nM (inactive).

Consider `O=C(Nc1ccc(Cl)cc1Cl)N1CCN2C(=O)[C@@H]3CSCN3C(=O)[C@H]2C1`, for which the IC50 entry is “inactive”.

With `O=C1Nc2ccc(S(=O)(=O)NCc3ccccc3)cc2C1=O`, the IC50 result was “inactive”.

In the case of `CC(C)[C@@H]1NC(=O)[C@H]2CN(C(=O)NCc3ccccc3)CCN2C1=O`, the IC50 is 819 nM.

Turning to `O=Cc1cccn1-c1ccc(C(=O)O)cc1`, the IC50 entry is “inactive”.

On to `COc1ccc(CCNC(=O)CN2CCN(Cc3nc(-c4ccco4)cs3)CC2)cc1OC`, for which the IC50 entry is “inactive”.

Consider `O=C(Nc1ccc(N2CCOCC2)cc1)c1ccc2nc(-c3cccs3)sc2c1`, for which the IC50 result is “inactive”.

For the compound `O=[N+]([O-])c1ccc(N/N=C/c2ccco2)c(S(=O)(=O)N2CCOCC2)c1`, the IC50 entry was “inactive”.

Turning to `c1ccc(-c2ccc(OCCCCn3cncn3)cc2)cc1`, the IC50 entry was “inactive”.

Take `Cc1ccc([N+](=O)[O-])cc1S(=O)(=O)Nc1ccc(Nc2ncccc2[N+](=O)[O-])cc1`: the IC50 was 423 nM.

Take `O=C(NC1CCCCC1)N1CCN2C(=O)[C@@H]3CCCN3C(=O)[C@H]2C1`: the IC50 entry is “inactive”.

Turning to `CNC(=O)COc1cc(-c2cn[nH]c2)ccc1NC(=O)C1COc2ccc(OC)cc2C1` (stereo unspecified), the IC50 result was “inactive”.

For `Cc1cc2c(c(=O)[nH]1)C(=O)O/C2=C\c1ccco1`, the IC50 is 15.3 nM.

For `Cc1ccc(/C=C/C(=O)NCc2ccccn2)o1`, the IC50 result is “inactive”.

Regarding `Nc1ccc(O)c(C(=O)O)c1`, the IC50 was 18.7 nM.

Consider `COc1ccc(C[C@@H]2NC(=O)[C@H]3CN(C(=O)NC4CCCCC4)CCN3C2=O)cc1`, for which the IC50 entry was “inactive”.

Consider `CCOC(=O)C1C2NC(=S)N(c3ccccc3)C1(C)Oc1cc(OC)ccc12` (stereo unspecified), for which the IC50 is > 6400 nM (inactive).

For `O=C(/C=C/c1ccc(-c2cccc(C(F)(F)F)c2)o1)c1ccco1`, the IC50 is 160 nM.

With `CC1CCC(N2CCN(Cc3ccco3)CC2)CC1` (stereo unspecified), the IC50 result is “inactive”.

For the compound `COc1ccc(C[C@@H]2NC(=O)[C@H]3CN(C(=O)NCc4ccccc4)CCN3C2=O)cc1`, the IC50 result was “inactive”.

Regarding `O=C(O)COc1ccc(-n2cccc2)cc1`, the IC50 was 324 nM.

Consider `Cc1cncc2c(S(=O)(=O)N3CC[C@@H](NC(=O)C(O)c4ccc(F)cc4F)C3)cccc12` (stereo partly specified), for which the IC50 result is “inactive”.

Consider `CCCCn1c(=O)[nH]c(=O)c2c1nc(-c1ccc([N+](=O)[O-])o1)n2C`, for which the IC50 was 66.6 nM.

Turning to `CCC[C@@H]1NC(=O)[C@H]2CN(C(=O)NCc3ccccc3)CCN2C1=O`, the IC50 was 826 nM.

For `CC1=NC(=S)C2C(=O)O/C(=C/c3ccc(-c4cccc([N+](=O)[O-])c4)o3)C2=C1` (stereo unspecified), the IC50 result was “inactive”.

With `O=C(O)c1cc(N/N=C/c2ccc(N3CCOCC3)s2)ccc1Cl`, the IC50 was 116 nM.

As to `O=C1N[C@@H](CSCc2ccccc2)C(=O)N2CCN(C(=O)NCc3ccccc3)C[C@H]12`, the IC50 is 394 nM.

`O=C(NC1CCCCC1)N1CCN2C(=O)[C@@H]3CSCN3C(=O)[C@H]2C1`: the IC50 entry was “inactive”.

As for `CCOC(=O)C1C2NC(=S)N(CC)C1(C)Oc1ccc(Cl)cc12` (stereo unspecified), the IC50 result was “inactive”.

As to `CN(C)C1C(=O)C(C(N)=O)=C(O)C2(O)C(=O)C3=C(O)c4c(O)cccc4C(C)(O)C3CC12` (stereo unspecified), the IC50 is > 6480 nM (inactive).

Regarding `CCc1ccc(CN2CCN(Cc3cc(OC)c(O)c(OC)c3)CC2)cc1`, the IC50 was > 5790 nM (inactive).

As to `CC(C)C[C@H]1C(=O)N2CCN(C(=O)NC3CCCCC3)C[C@@H]2C(=O)N1C`, the IC50 is > 2160 nM (inactive).

With `O=C(O)c1ccc(O)c(C=Nc2ccc(N=Cc3cc(C(=O)O)ccc3O)cc2)c1`, the IC50 result is “inactive”.

`Cc1cc(C)n(C(=O)/C=C/c2ccco2)n1`: the IC50 was 817 nM.

With `O=P(O)(O)C(Sc1ccc(Cl)cc1)P(=O)(O)O`, the IC50 was 62.6 nM.

With `O=C(NC1CCN(Cc2ccccc2)CC1)c1ccc2nc(-c3cccs3)sc2c1`, the IC50 was > 6380 nM (inactive).

For `COc1ccc2c(c1)CC(C(=O)Nc1ccc(-c3cn[nH]c3)cc1OCC#N)CO2` (stereo unspecified), the IC50 result is “inactive”.

On to `O=C(OC1CCCC1=O)c1ccc(S(=O)(=O)N2CCCCC2)cc1` (stereo unspecified), for which the IC50 result is “inactive”.

`N#Cc1c(SCC(=O)O)nc2c(c1-c1ccco1)CCC2`: the IC50 is 194 nM.

In the case of `O=C(O)c1ccc(CS(=O)(=O)c2ccccc2)o1`, the IC50 was 146 nM.

Take `N#CC(C#N)=C(N)/C(C#N)=C/c1ccc([N+](=O)[O-])o1`: the IC50 is 467 nM.

Regarding `C/C(=N\NC(=O)CC1=NNC(=O)C1)c1ccco1`, the IC50 entry was “inactive”.

For the compound `CCN(CC)c1ncnc2c1ncn2[C@@H]1O[C@H](COP(=O)(O)OP(=O)(O)C(Br)(Br)P(=O)(O)O)C(O)[C@@H]1O` (stereo partly specified), the IC50 was 175 nM.

Turning to `CCOC1=CC(c2ccc3c(c2)OCO3)CC(=O)c2c(C)oc(C)c21` (stereo unspecified), the IC50 was > 6480 nM (inactive).

As for `O=C1N[C@@H](Cc2ccccc2)C(=O)N2CCN(C(=O)NCc3ccccc3)C[C@H]12`, the IC50 is > 6480 nM (inactive).

Regarding `O=C(/C=C/c1ccco1)Nc1cccc(NC(=O)/C=C/c2ccco2)n1`, the concentration for half-maximal inhibition (IC50) is 10.4 nM.

Turning to `CCC(C)c1ccccc1OCCNCCN(C)C` (stereo unspecified), the IC50 was > 6480 nM (inactive).

Consider `O=S(=O)(O)c1cc(S(=O)(=O)O)c2cc(O)c(S(=O)(=O)O)cc2c1`, for which the IC50 is 156 nM.

In the case of `Brc1c(OCCN2CCNCC2)ccc2ccccc12`, the IC50 result was “inactive”.

Take `N#Cc1c(-c2ccc3c(c2)OCO3)nc(N2CCCCC2)[nH]c1=O`: the IC50 entry was “inactive”.

As for `Cc1cc2c(c(=O)[nH]1)C(=O)O/C2=C\c1ccc(C)o1`, the IC50 was 333 nM.

Take `CN(Cc1ccco1)S(=O)(=O)c1ccc2[nH]cc(C(=O)O)c(=O)c2c1`: the IC50 result is “inactive”.

Regarding `C[C@@H]1NC(=O)[C@H]2CN(C(=O)NCc3ccccc3)CCN2C1=O`, the IC50 result is “inactive”.

Turning to `CCN1CCc2c(sc(NC(=S)NC(=O)/C=C/c3ccco3)c2C(N)=O)C1`, the IC50 is 726 nM.
